# How the values were obtained:
# [1] = Pharmacokinetics of deuterated and non-deuterated D-serine, PO 10 mg/kg (Example 5); assay type: in vivo, male Sprague Dawley rats
# Procedure: Three rats were used for each group. Blood was collected at the following time points: for IV dosing: pre-dose, 0.05, 0.167, 0.5, 1, 2, 4, 6, 8 and 12 hours post-dose; for PO dosing: pre-dose, 0.25, 0.5, 1, 2, 4, 6, 8 and 12 hours post-dose PO. Urine was collected at pre-dose (minimum 12 hours), 0-6, 6-12 and 12-24 hours. Plasma samples were analyzed and quantified for dosed compound LC-MS/MS.
# [2] = target: T1, human NMDAR subunits GluN1 and GluN2A (Homo sapiens, UniProt Q05586); experiment: Automated patch clamp (ScreenPatch) NMDA receptor activation in HEK293 cells; assay type: cell-based; settings: 0.003 to 10 μM
# T1 construct: expressed in transfected cells; host or cells: HEK293
# Procedure: Peak current and steady state current were measured. The activity at the NMDA receptor was indistinguishable for the two compounds.
# [3] = Nephrotoxicity of Compound 100 and non-deuterated D-serine at 150 mg/kg PO (Example 3); assay type: in vivo, male Sprague-Dawley Rats
# Description: (§1) The pharmacokinetic profile of Compound 100 was investigated in male Sprague-Dawley rats compared with that of non-deuterated D-serine. […] Plasma was collected and analyzed for Compound 100 and non-deuterated D-Serine. Additional blood was collected and analyzed for the full clinical chemistry profile.
# [4] = Nephrotoxicity comparison, dose escalation 150 mg/kg to 750 mg/kg PO (Example 3, FIGS. 7-10); assay type: in vivo, rats; settings: for BUN / Creatinine: PO doses from 150 mg/kg to 750 mg/kg
# [5] = Pharmacokinetic profile of Compound 100 vs non-deuterated D-serine, single 150 mg/kg PO dose (Example 3); assay type: in vivo, male Sprague-Dawley rats
# Description: as §1
# [6] = Pharmacokinetics dose response of non-deuterated D-serine, 30-300 mg/kg PO (Example 4); assay type: in vivo, male Sprague-Dawley rats
# Description: (§2) The pharmacokinetic profile of non-deuterated D-serine was investigated in male Sprague-Dawley rats. […] Plasma was collected and analyzed for the non-deuterated D-serine. Additional blood was collected and analyzed for the full clinical chemistry profile.
# [7] = Nephrotoxicity of non-deuterated D-serine at 300 mg/kg PO: clinical chemistry and urine (Example 2); assay type: in vivo, Male Sprague-Dawley Rats
# Procedure: The hippocampus, cortex and plasma were collected and analyzed. Additional blood was collected and were analyzed for the full clinical chemistry profile. Urine was also collected and examined for glucose and total protein. […] The mean plasma, hippocampus, and cortex concentration at 1 hour are 19200 ng/mL, 674 ng/g, and 754 ng/g; respectively. The mean plasma, hippocampus, and cortex concentrations at 8 hours were 11250 ng/mL, 17725 ng/g, and 11875 ng/g, respectively. […] Blood urea nitrogen and creatinine levels were elevated.
# [8] = Nephrotoxicity dose response of non-deuterated D-serine, 30-300 mg/kg PO (Example 4); assay type: in vivo, male Sprague-Dawley Rats; settings: 24 hr samples at the 150 and 300 mg/kg doses, compared to control and reference values
# Description: as §2
# [9] = dose escalation 150 mg/kg to 750 mg/kg
# [10] = serum, D-serine at 24 hr, Compound 100 at 4, 8 and 24 hours
structure (smiles),measurement,setting,value
"[2H][C@@](N)(CO)C(=O)O [Compound 100, (2R)-2-amino-2-deutero-3-hydroxy-propanoic acid]",Tmax compared with non-deuterated D-serine,[1],similar
same,Activity at the NMDA receptor (peak current and steady state current),[2],indistinguishable
same,Levels of biomarkers of nephrotoxicity,[3],did not increase
same,BUN,[4],minimal changes
same,Creatinine,[4],minimal changes
same,"Exposure as measured by AUC and Cmax, compared with non-deuterated D-serine",[4]; [9],greater
same,Gross signs of nephrotoxicity,[4]; [9],not
same,Cmax and AUCinf compared with non-deuterated D-serine,[5],similar
"N[C@H](CO)C(=O)O [Non-deuterated D-Serine, D-serine]","AUCinf, multiple of the 30 mg/kg value",[6]; 75 mg/kg PO (2.5× dose),2.9×
same,"Cmax, multiple of the 30 mg/kg value",[6]; 75 mg/kg PO (2.5× dose),2.2×
same,"AUCinf, multiple of the 30 mg/kg value",[6]; 100 mg/kg PO (3.3× dose),4.9×
same,"Cmax, multiple of the 30 mg/kg value",[6]; 100 mg/kg PO (3.3× dose),4.0×
same,"AUCinf, multiple of the 30 mg/kg value",[6]; 150 mg/kg PO (5× dose),6.9×
same,"Cmax, multiple of the 30 mg/kg value",[6]; 150 mg/kg PO (5× dose),7.4×
same,"AUCinf, multiple of the 30 mg/kg value",[6]; 300 mg/kg PO (10× dose),18×
same,"Cmax, multiple of the 30 mg/kg value",[6]; 300 mg/kg PO (10× dose),10.7×
same,Tmax,"[6]; plasma, 150 mg/kg PO",18 min
same,Activity at the NMDA receptor (peak current and steady state current),[2],indistinguishable
same,Blood urea nitrogen level,[7],elevated
same,Creatinine level,[7],elevated
same,Glucose in urine,[7],observed
same,Levels of biomarkers of nephrotoxicity,[3],caused an increase
same,Blood urea nitrogen (BUN) level,"[3]; serum, D-serine at 8 hr and 24 hr, Compound 100 at 4, 8 and 24 hours",Elevated
same,Creatinine level,[3]; [10],Elevated
same,Gamma glutamyl transferase (GGT) level,[3]; [10],Elevated
same,Creatine level,[8],Elevated
same,Gamma glutamyl transferase (GGT) level,[8],Elevated
same,Urea nitrogen level,[8],Elevated
same,BUN,[4],increasingly elevated levels
same,Creatinine,[4],increasingly elevated levels
same,Gross signs of nephrotoxicity,[4]; [9],observed

# — patent US20220218641A1 (Concert Pharmaceuticals, Inc., priority 2019, published 2022)
